Data: article PMC6300282, “Sulphamethazine derivatives as immunomodulating agents: New therapeutic strategies for inflammatory diseases” (PLoS ONE, 2018)
≈ marks a conversion by molar mass, not a printed value.

Legend:
Assay type in all cases: cell-based
[1] = test system: Pseudomonas aeruginosa (POA 286); test: Microplate Alamar Blue Assay, Pseudomonas aeruginosa; details: Pseudomonas aeruginosa; 200 μg/mL; NI = No inhibition; read-out: Percentage (%) Inhibition, Pseudomonas aerugenosa
Method: (§1) The anti-bacterial activity of synthesized compound were evaluated by the Microplate Alamar Blue Assay. Staphylococcus aureus (ATCC 25923), Pseudomonas aeruginosa(POA 286), Salmonella typhi (ATCC 14028), Bacillus subtilis ATCC 6633) and Escherichia coli (ATCC 12022) were used in this study as a standard bacterial strains and they were obtained from microbial bank of PCMD, International Center for Chemical and Biological Sciences, University of Karachi, Karachi-75270, Pakistan. The bacterial colonies grown in Trypton Soya Agar (TSA) (Oxoid Limited, UK) were inoculated in Mueller Hinton Broth (MHB) (Oxoid Limited, UK) and incubated overnight at 37 °C. Fully grown bacterial cultures were then diluted to adjust with 0.5 McFarland Turbidity Index (equivalent to 1.5 × 10^8 CFU/mL). Stock solutions (4 mg/mL) of different test compounds were prepared in DMSO and 10μL each of these stock solutions were placed in well of flat bottom, polystyrene, sterile 96-wells plate except the positive control wells (media + bacteria). This gives 200μg/mL concentrations of compounds in final 200 μL solution. Each compound was run in triplicates. Finally, bacterial suspension (5 x 10^6 CFU/mL) was added in each well. Plates were sealed by parafilm and incubated at 37 °C for 18–22 hrs. Next day, 20 μL of 0.02% resazurin sodium salt dye (Chem-Impex-Int’LInc) was added in each well and incubated in shaking incubator at 80 rpm, 37 °C for 2–3 hrs. The color change from blue to reddish pink indicates the growth of bacteria. For quantitative analysis, plates were read at 570 nm and 600 nm in Multiskan GOmicroplate spectrophotometer, (Thermo Scientific, USA). The % inhibition of bacterial growth was calculated using below mentioned formula.
(§2) For the calculation of the % difference in reduction between treated and control cells in cytotoxicity/proliferation assays: =(εOX)λ2Aλ1-(εOX)λ1Aλ2oftestagent/(εOX)λ2A°λ1-(εOX)λ1A°λ2ofpositivegrowthcontrol×100

[2] = test system: Salmonella typhi (ATCC 14028); test: Microplate Alamar Blue Assay, Salmonella typhi; details: Salmonella enterica; 200 μg/mL; NI = No inhibition; read-out: Percentage (%) Inhibition, Slamonella typhi
Method: as §1, §2

[3] = test system: TNF-α production from THP-1 human monocytic leukemia cell line; test: TNF-α production (ELISA), LPS stimulated THP-1 cells; details: Homo sapiens; PMA-differentiated THP-1 cells, 50 ng/mL LPS, 4 hours; three doses 1, 10, 100 μg/mL; mean ± SD of three; read-out: TNF-α Inhibition (IC50)
Description: RPMI-1640 (R8758, Sigma Aldrich, St. Louis, USA); L-glutamine (25030081, Gibco, California, USA); D-glucose (G8270, Sigma Aldrich, St. Louis, USA); 2-mercaptoethanol (190242, MP Biomedicals, lllkirch, France); sodium pyruvate (11360–070, Gibco, California, USA); FBS (A11-104, PAA Laboratories, Pasching, Austria); HEPES (H3375, Sigma Aldrich, St. Louis, USA); PMA (151864, MP Biomedicals, lllkirch, France); lipopolysaccharide B of E. coli 0111:B4 (LPS) (3922–25, DIFCO Laboratories, USA); 24-well tissue culture plates (CLS3524, Corning, Dublin, USA); Flat bottom 96-well tissue culture plates (CLS3300, Corning, New York, USA). BSA (151429, MP Biomedicals, lllkirch, France); PBS tablets (41620016–4, Bioworld, Dublin, Ireland); Tween 20 (822184, Merck, Damstadt, Germany); Human TNF-α DuoSet ELISA Kit (DY210, R&D Systems, Minneapolis, USA); Human IL-1β DuoSet ELISA Kit (DY201, R&D Systems, Minneapolis, USA); and Human IL-2 DuoSet ELISA Kit (DY202, R&D Systems, Minneapolis, USA); ELISA plate sealers (DY992, R&D Systems, Minneapolis, USA); Clear flat bottom 96-well microplates (DY990, R&D Systems, Minneapolis, USA). Human monocytic leukemia cells THP-1 were obtained from (European Collection of Cell Cultures, UK). The cells were maintained in RPMI-1640 containing 5.5 mmol/L glucose (BioM Laboratories, Chemical Division, Malaysia), 50 μmol/L mercaptoethanol (Merck Damstadt, Germany), 10% FBS (fetal bovine serum), 2 mmol/L; L-glutamine (PAA Laboratories, GmbH, Pasching, Austria). Cells were grown in 75 cc flasks, harvested and 2.5×10^5 cells/mL was then plated in 24-well tissue culture plates. 20 ng/mL of phorbol-12-myristate-13-acetate (PMA), (SERVA, Heidelberg, Germany) was added followed by incubation for 24 hours at 37 °C in 5% CO2to convert them into macrophage like cell. Cells were then stimulated with E. coli lipopolysacchride B, (DIFCO Laboratories, michigon, USA) at a final concentration of 50 ng/mL and treated with compounds at three different concentration (1, 10 and 100 μg/mL) and then incubated for 4 hours at 37 °C in 5% CO2. The supernatants collected were analyzed for the level of TNF -α using the human TNF-α Duo Set ELISA (R&D Systems, Minneapolis, USA), and according to manufacturer’s instructions.

[4] = test system: zymosan activated whole blood phagocytes; test: Oxidative burst assay (luminol-enhanced chemiluminescence), whole blood; details: human whole blood, serum opsonized zymosan, three doses 1, 10, 100 μg/mL, mean ± SD of three, NA = Not active, read-out: Oxidative Burst Inhibition (IC50) WB
Method: Luminol-enhanced chemiluminescence assay was performed, as described by Helfandet al., 1982 [17], with some modifications. Briefly 25 μL of diluted whole blood in HBSS^++ (Hanks Balanced Salt Solution, containing calcium chloride and magnesium chloride) [Sigma, St. Louis, USA] was incubated with 25 μL of three different concentrations of compounds (1, 10, and 100 μg/mL), each in triplicate. Control wells received HBSS^++ and cells, but no compounds. Test was performed in white half area 96-well plates [Costar, NY, USA], which was incubated at 37 °C for 15 minutes in the thermostat chamber of luminometer [Labsystems, Helsinki, Finland]. After incubation, 25 μL of serum opsonized zymosan (SOZ) [Fluka, Buchs, Switzerland] and 25 μL of intracellular reactive oxygen species detecting probe, luminol [Research Organics, Cleveland, OH, USA] were added into each well, except blank wells (containing only HBSS^++). The level of the ROS was recorded in luminometer in term of relative light units (RLU).

[5] = test system: Escherichia coli (ATCC 12022); test: Microplate Alamar Blue Assay, Escherichia coli; details: ATCC12022, 200 μg/mL, NI = No inhibition, read-out: Percentage (%) Inhibition, Escherichia coli
Method: as §1, §2

[6] = test system: Staphylococcus aureus (ATCC 25923); test: Microplate Alamar Blue Assay, Staphylococcus aureus; details: Staphylococcus aureus, ATCC25923; 200 μg/mL; NI = No inhibition; read-out: Percentage (%) Inhibition, Staphylococcus aureus
Method: as §1, §2

Row | Compound | inhibition at 200 µg/mL [1] | inhibition at 200 µg/mL [2] | IC50 [3] | IC50 [4] | inhibition at 200 µg/mL [5] | inhibition at 200 µg/mL [6]
1 | Cc1cc(C)nc(NS(=O)(=O)c2ccc(NC(=O)C(Br)CBr)cc2)n1 (stereo not drawn) [Compound 3, 2,3-Dibromo-N-(4-(N-(4,6-dimethylpyrimidin-2-yl)sulfamoyl)phenyl)propanamide] | 5.93% | < 0% | < 1 µg/mL | 6.5 ± 1.3 µg/mL | < 0% | 60%
2 | Cc1cc(C)nc(NS(=O)(=O)c2ccc(NC(=O)c3cccc(CCl)c3)cc2)n1 [Compound 4, 3-(Chloromethyl)-N-(4-(N-(4,6-dimethylpyrimidin-2-yl)sulfamoyl)phenyl)benzamide] | < 0% | < 0% | < 1 µg/mL | 7.3 ± 0.4 µg/mL | < 0% | 3.21%
3 | Cc1cc(C)nc(NS(=O)(=O)c2ccc(NC(=O)c3ccc(CCl)cc3)cc2)n1 [Compound 5, 4-(Chloromethyl)-N-(4-(N-(4,6-dimethylpyrimidin-2-yl)sulfamoyl)phenyl)benzamide] | < 0% | < 0% | < 1 µg/mL | 20.5 ± 2.2 µg/mL | < 0% | 35%
4 | Cc1cc(C)nc(NS(=O)(=O)c2ccc(NC(=O)c3cc(C(F)(F)F)cc(C(F)(F)F)c3)cc2)n1 [Compound 6, N-(4-(N-(4,6-dimethylpyrimidin-2-yl)sulfamoyl)phenyl)-3,5-bis(trifluoromethyl)benzamide] | < 0% | < 0% | < 1 µg/mL | 5.7 ± 0.8 µg/mL | < 0% | 32.7%
5 | Cc1cc(C)nc(NS(=O)(=O)c2ccc(NC(=O)c3cc(F)cc(F)c3)cc2)n1 [Compound 7, N-(4-(N-(4,6-dimethylpyrimidin-2-yl)sulfamoyl)phenyl)-3,5-difluorobenzamide] | < 0% | 13.1% | 38.9 ± 0.7 µg/mL (≈ 93 µM) | 5.8 ± 0.6 µg/mL | < 0% | 54.3%
6 | Cc1cc(C)nc(NS(=O)(=O)c2ccc(NC(=O)c3cc(F)cc(C(F)(F)F)c3)cc2)n1 [Compound 8, N-(4-(N-(4,6-dimethylpyrimidin-2-yl)sulfamoyl)phenyl)-3-fluoro-5-(trifluoromethyl)benzamide] | 4.31% | 29.4% | 9.5 ± 0.4 µg/mL (≈ 20.3 µM) | 4.2 ± 0.2 µg/mL | < 0% | 47.3%
7 | Cc1cc(C)nc(NS(=O)(=O)c2ccc(NC(=O)c3ccc(C(F)(F)F)c(F)c3)cc2)n1 [Compound 9, N-(4-(N-(4,6-dimethylpyrimidin-2-yl)sulfamoyl)phenyl)-3-fluoro-4-(trifluoromethyl)benzamide] | < 0% | 0.94% | 2.1 ± 0.2 µg/mL (≈ 4.48 µM) | 5.7 ± 0.2 µg/mL | < 0% | 27.9%
8 | Cc1cc(C)nc(NS(=O)(=O)c2ccc(NC(=O)c3ccc(F)c(C(F)(F)F)c3)cc2)n1 [Compound 10, N-(4-(N-(4,6-dimethylpyrimidin-2-yl)sulfamoyl)phenyl)-4-fluoro-3-(trifluoromethyl)benzamide] | < 0% | < 0% | 34.5 ± 4.1 µg/mL (≈ 73.6 µM) | 10.6 ± 0.5 µg/mL | < 0% | 1.09%
9 | Cc1cc(C)nc(NS(=O)(=O)c2ccc(NC(=O)C(C)Cl)cc2)n1 (stereo not drawn) [Compound 11, 2-Chloro-N-(4-(N-(4,6-dimethylpyrimidin-2-yl)sulfamoyl)phenyl)propanamide] | 26.5% | 29.6% | > 100 µg/mL | 34.6 ± 1.2 µg/mL | 3.93% | < 0%
10 | Cc1cc(C)nc(NS(=O)(=O)c2ccc(NC(=O)c3ccc(F)cc3)cc2)n1 [Compound 12, N-(4-(N-(4,6-dimethylpyrimidin-2-yl)sulfamoyl)phenyl)-4-fluorobenzamide] | < 0% | 19% | 9.9 ± 0.2 µg/mL (≈ 24.7 µM) | 10.6 ± 0.5 µg/mL | < 0% | 49.7%
11 | Cc1cc(C)nc(NS(=O)(=O)c2ccc(NC(=O)c3cccc([N+](=O)[O-])c3)cc2)n1 [Compound 13, N-(4-(N-(4,6-dimethylpyrimidin-2-yl)sulfamoyl)phenyl)-3-nitrobenzamide] | 6.58% | < 0% | 19.5 ± 1 µg/mL (≈ 45.6 µM) | 9.2 ± 0.6 µg/mL | < 0% | 34.3%
12 | Cc1cc(C)nc(NS(=O)(=O)c2ccc(N)cc2)n1 [compound 1, Sulfamethazine, reference compound] | 8.92% | < 0% | > 100 µg/mL | 8.9 ± 1.3 µg/mL | < 0% | 42.2%
